From patent US20240245634A1, “PCNA INHIBITORS AND EGFR INHIBITORS FOR CANCER TREATMENT” (City of Hope, priority 2021, published 2024) come the findings set out here.

“Also recorded” adds a separate entry of the source.

The subject of series [1] is NCI60 cell line panel. In words: Growth inhibition on the NCI60 cell line panel (NCI Developmental Therapeutics Program). It counts as cell-based. The text has this: (§1) Studies that explored acquisition of resistance to Osi have identified many genomic alterations that contribute to resistance. These alterations are present in some of the cell lines in the NCI60 cell line panel. The growth inhibitory effects of AOH1996 on the NCI60 panel has been measured through services offered by the NCI's Development Therapeutics Program.

For series [2], the system named is cell lines (14837, 14838) engineered to express oncogenic KRAS. In words: Dose response assay on cell lines with doxycycline-inducible mutant KRAS. The note with it: with doxycycline (KRAS expressed) versus without. The format is cell-based. The method, then: Some of those alterations are present in the NCI60 cell line and represented in the chart. Each circle represent cell lines with the resistance conferring genomic alteration listed on the x-axis. […] FIG. 5F: two cell lines (14837, 14838) engineered to express oncogenic KRAS in the presence of doxycycline (Dox) were treated with escalating doses of AOH1996 in a dose response assay.
as §1

In series [3] the target is T1, EGFR (Homo sapiens, UniProt P00533).
T1 construct: endogenous in cells; host or cells: MDA-MB-468
T1 sequence (P00533 25-1210): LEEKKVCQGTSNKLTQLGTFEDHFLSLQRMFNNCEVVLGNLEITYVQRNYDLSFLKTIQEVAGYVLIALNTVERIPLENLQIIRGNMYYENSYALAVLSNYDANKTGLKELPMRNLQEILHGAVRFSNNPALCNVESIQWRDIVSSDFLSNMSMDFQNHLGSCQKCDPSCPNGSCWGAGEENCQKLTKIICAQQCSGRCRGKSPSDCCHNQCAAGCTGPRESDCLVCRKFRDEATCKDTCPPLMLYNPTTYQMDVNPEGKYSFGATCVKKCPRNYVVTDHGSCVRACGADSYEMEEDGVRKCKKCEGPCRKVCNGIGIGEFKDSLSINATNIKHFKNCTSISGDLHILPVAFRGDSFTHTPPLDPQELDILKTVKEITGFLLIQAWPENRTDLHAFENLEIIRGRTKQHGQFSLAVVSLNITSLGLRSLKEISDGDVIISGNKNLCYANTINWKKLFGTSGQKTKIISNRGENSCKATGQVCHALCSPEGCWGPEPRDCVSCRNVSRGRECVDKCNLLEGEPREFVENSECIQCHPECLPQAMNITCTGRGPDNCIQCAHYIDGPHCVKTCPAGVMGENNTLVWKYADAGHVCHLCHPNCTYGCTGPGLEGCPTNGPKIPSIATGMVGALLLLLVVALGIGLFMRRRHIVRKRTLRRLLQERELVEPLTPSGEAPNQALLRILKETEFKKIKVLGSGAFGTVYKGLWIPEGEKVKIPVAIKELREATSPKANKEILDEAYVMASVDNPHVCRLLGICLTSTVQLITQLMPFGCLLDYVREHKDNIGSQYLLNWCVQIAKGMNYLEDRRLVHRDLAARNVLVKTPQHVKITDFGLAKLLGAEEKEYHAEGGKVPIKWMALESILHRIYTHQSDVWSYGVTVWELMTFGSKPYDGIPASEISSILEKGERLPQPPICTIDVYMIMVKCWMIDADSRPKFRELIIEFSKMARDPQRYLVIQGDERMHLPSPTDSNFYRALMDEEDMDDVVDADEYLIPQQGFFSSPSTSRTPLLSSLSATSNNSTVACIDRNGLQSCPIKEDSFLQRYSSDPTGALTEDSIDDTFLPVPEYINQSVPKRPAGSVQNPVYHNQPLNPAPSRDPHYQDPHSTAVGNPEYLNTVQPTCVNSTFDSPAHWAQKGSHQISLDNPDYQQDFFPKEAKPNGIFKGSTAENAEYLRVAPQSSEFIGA
In words: Immunofluorescence imaging of EGFR in MDA-MB-468 cells. The format is cell-based. The settings on record: MDA-MB-468, serum starved, 30 minutes drug, then 15 minutes EGF. The method, then: (§2) Serum starved cells were treated for 30 minutes with DMSO, AOH1996, Osi, or AOH1996 and Osi followed by 15 minutes of EGF stimulation.

The target in series [4] is T2, PCNA (Homo sapiens, UniProt P12004).
T2 construct: endogenous in cells; host or cells: MDA-MB-468
T2 sequence (P12004 whole entry): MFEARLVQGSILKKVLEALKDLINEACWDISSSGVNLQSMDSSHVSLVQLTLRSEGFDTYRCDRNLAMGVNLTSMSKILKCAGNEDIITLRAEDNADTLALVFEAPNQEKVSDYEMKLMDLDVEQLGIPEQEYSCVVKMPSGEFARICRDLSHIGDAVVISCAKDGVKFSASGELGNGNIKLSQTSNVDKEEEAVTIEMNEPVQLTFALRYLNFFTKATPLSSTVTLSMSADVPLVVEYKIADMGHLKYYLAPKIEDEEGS
As to the kind of experiment: Immunofluorescence imaging of PCNA in MDA-MB-468 cells. The note with it: MDA-MB-468, serum starved, 30 minutes drug, then 15 minutes EGF. It counts as cell-based. The method, then:
as §2

In series [5] the test system is CRC cell lines. In words: IC50 on colorectal cancer cell lines of the NCI60 panel. It counts as cell-based. The note with it: IC50 determined by the NCI Developmental Therapeutics Program. The method, then: FIGS. 7A-7B show EGFR targeted antibodies used in the treatment of colorectal cancer (CRC). […] CRC with KRAS and BRAF activating mutations are often difficult to treat but cell lines with mutant KRAS and BRAF are responsive to AOH1996. FIG. 7A: IC50 of CRC cell lines relative to the rest of the NCI60 cell lines. FIG. 7B: AOH1996 IC50 on CRC cell lines classified by presence and type of Ras-Raf-Mek-Erk pathway mutation. IC50s for the NCI60 cell lines was determined by the NCI Developmental Therapeutics Program. Mutation status of CRC cell lines was found in the Cellosaurus database.

Series [6] relates to tumors. As to the kind of experiment: In vivo tumor suppression and tolerability.

With `COc1cccc(Oc2ccccc2NC(=O)CNC(=O)c2cccc3ccccc23)c1` [AOH1996], the “effect of genomic alterations conferring resistance to osimertinib on sensitivity to AOH1996” value in series [1] (NCI60 cell lines carrying the alterations) is reported as “did not confer resistance”. In addition, in series [1] (NCI60 cell lines with BRAF V600E and activating KRAS mutations), the “sensitivity of BRAF and KRAS mutant cell lines to AOH1996” value is listed as “noticeable skew in distribution towards AOH1996 sensitivity; also recorded: greater sensitivity”. In addition, the “sensitivity with mutant KRAS expressed versus expression suppressed” value in series [2] was “sensitive to AOH1996 when mutant KRAS is expressed but not when expression was suppressed; also recorded: more sensitive”. In addition, the “EGFR localization and signal” value in series [3] is “accumulated EGFR at the cell membrane; also recorded: EGFR was localized to the cell membrane”. The PCNA localization result in series [4] was “lost punctate staining of PCNA in the nucleus; also recorded: Nuclear PCNA foci were absent”. In addition, in series [5], the “response of CRC cell lines with mutant KRAS and BRAF” value is “responsive”; the “sensitivity of CRC cell lines relative to the rest of the NCI60 cell lines” value is on record as “particularly sensitive”. In series [6], the “dose with no discernable side effects” value is reported as “more than 6 times its effective dose” and the route of administration result is recorded as “orally administrable”. For the same molecule, in series [6] (oral), the “effect on tumors in vivo” value is “effectively kills and suppresses tumors”.
Regarding `C=CC(=O)Nc1cc(Nc2nccc(-c3cn(C)c4ccccc34)n2)c(OC)cc1N(C)CCN(C)C` [osimertinib, reference compound], the PCNA localization entry in series [4] is “less apparent”.
